Consider ten compounds from article PMC9601613, “Development of a Fluorescence Polarization Assay for Multi-Determination of 10 Aminoglycosides in Pork Muscle Sample Based on Ribosomal Protein S12 and Studying Its Recognition Mechanism” (Foods, 2022).

In experiment [1] the target is T1, RpsL12 (ribosomal protein S12) (Lysinibacillus sphaericus, UniProt B1HMZ3).
T1 construct: gene rpsL; isolated ribosomal protein without rRNA; 426 bp gene in pET32a(+), purified from soluble fraction of E. coli BL21
T1 sequence (B1HMZ3 1-139): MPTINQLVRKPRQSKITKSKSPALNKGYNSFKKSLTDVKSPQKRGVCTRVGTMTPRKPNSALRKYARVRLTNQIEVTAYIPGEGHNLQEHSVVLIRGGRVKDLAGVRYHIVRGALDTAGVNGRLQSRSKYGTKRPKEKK
Description: fluorescence polarization competition with tracer STR-FITC. The class given is binding. The text has this: fluorescence polarization competition with tracer STR-FITC on RpsL12 (ribosomal protein S12)
(Fluorescence polarisation rises when a labelled molecule tumbles more slowly, as on binding a larger partner.)

Experiment [2] deals with T1, RpsL12 (ribosomal protein S12). Briefly: surface plasmon resonance. The class given is binding. The note with it: log2-transformed affinity, not an association constant in 1/M; sign as printed; KD itself only in supplement. The text has this: surface plasmon resonance on RpsL12 (ribosomal protein S12)
(In general: In SPR one partner is held on a chip, and binding of the other changes the refractive index at the surface.)

The target is the same in experiment [3]. Briefly: biochemical. Details: surface plasmon resonance, binding kinetics and equilibrium dissociation constant of aminoglycosides to RpsL12. The note with it: for kon: read-out: Ka; for koff: read-out: Kd. As for the experimental part:
The affinities of the RpsL12 for the 10 AGs were determined by using the surface plasmon resonance technique (SPR), and the assay procedures were performed according to our recent report (see Supplementary Materials). During the SPR test, the association constant (Ka), dissociation constant (Kd), and equilibrium dissociation constant (KD = Kd/Ka) for the 10 AGs were determined. Furthermore, the absolute affinity constants (KA=Log2(KD)) for the 10 AGs were also calculated, which were used to conveniently compare their affinities. For confirmation of the molecular docking results, the receptor affinities for the 10 drugs were also determined by SPR. […] The recognition mechanisms of RpsL12 protein for AGs reported in the present study were more comprehensive than the previous report. The recombinant plasmids were synthesized at Sangon Biotech Co., Ltd. (Shanghai, China) by inserting the RpsL12 gene of Lysinibacillus sphaericus (GenBank ID: AHC30887.1) into the express vector pET32a(+). The plasmids containing the express vector pET32a-RpsL12 were transformed into BL21 (D3) for acculturation, and the gene products in the positive colonies were characterized by a polymerase chain reaction and DNA sequencing. Then the RpsL12 was expressed with the same procedures as those described in our recent report (see Supplementary Materials), and the obtained product was analyzed with SDS-PAGE electrophoresis and Western blotting.

Broadly, the IC50 is the concentration needed to halve the response being measured. A high value points to lower potency. By Kd is commonly meant a measure of binding affinity in units of concentration. Read a low Kd as a tighter complex. With `NCC[C@H](O)C(=O)N[C@@H]1C[C@H](N)[C@@H](O[C@H]2O[C@H](CN)[C@@H](O)[C@H](O)[C@H]2O)[C@H](O)[C@H]1O[C@H]1O[C@H](CO)[C@@H](O)[C@H](N)[C@H]1O` [amikacin], the half-maximal inhibitory concentration (IC50) in experiment [1] was 0.116 µM. This compound also returned a KA in experiment [2] of 24.487. Further, in experiment [3], the dissociation constant Kd is 0.0425 µM, the kon was 1690 M⁻¹ s⁻¹ and the koff came to 7.2e-05 s⁻¹.
For the compound `CN[C@@H]1[C@@H](O[C@H]2O[C@H](CO)[C@@H](N)[C@H](O)[C@H]2O)O[C@H]2C[C@@H](N)[C@@H](O[C@H]3[C@H](O)[C@@H](O)[C@H](N)C[C@@H]3N)O[C@@H]2[C@@H]1O` [apramycin], in experiment [3], the kon was determined as 20200 M⁻¹ s⁻¹ and the koff stood at 0.000281 s⁻¹.
`CCN[C@@H]1C[C@H](N)[C@@H](O[C@H]2O[C@H](CN)CC[C@H]2N)[C@H](O)[C@H]1O[C@H]1OC[C@](C)(O)[C@H](NC)[C@H]1O` [etimicin]: the IC50 in experiment [1] is 0.129 µM. This compound also yielded a KA in experiment [2] of 11.358. Further, in experiment [3], binding was put at a Kd of 381 µM, the kon stood at 51.2 M⁻¹ s⁻¹ and the koff is 0.0195 s⁻¹.
In the case of `CNC(C)[C@@H]1CC[C@@H](N)[C@@H](O[C@H]2[C@H](O)[C@@H](O[C@H]3OC[C@](C)(O)[C@H](NC)[C@H]3O)[C@H](N)C[C@@H]2N)O1` (stereo partly drawn) [gentamicin], in experiment [3], the Kd came out at 4.72 µM, the kon is 2180 M⁻¹ s⁻¹ and the koff turned out to be 0.0103 s⁻¹.
For `CNC[C@@H]1CC[C@@H](N)[C@@H](O[C@H]2[C@H](O)[C@@H](O[C@H]3OC[C@](C)(O)[C@H](NC)[C@H]3O)[C@H](N)C[C@@H]2N)O1` [micronomicin], in experiment [1], the IC50 is 0.137 µM. Further, the KA in experiment [2] worked out at 14.666. Also, in experiment [3], the Kd was 38.5 µM, the kon worked out at 141 M⁻¹ s⁻¹ and the koff is 0.00543 s⁻¹.
In turn, `NC[C@@H]1O[C@H](O[C@H]2[C@@H](O)[C@H](O[C@@H]3[C@@H](O)[C@H](N)C[C@H](N)[C@H]3O[C@H]3O[C@H](CN)[C@@H](O)[C@H](O)[C@H]3N)O[C@@H]2CO)[C@H](N)[C@@H](O)[C@@H]1O` [neomycin] gave an IC50 in experiment [1] of 0.0786 µM. In experiment [2], this compound showed a KA of 25.997. Further, in experiment [3], binding was characterised by a dissociation constant (Kd) of 0.0149 µM, the kon is 3150 M⁻¹ s⁻¹ and the koff was 4.7e-05 s⁻¹.
For the compound `CCNC1CC(N)C(OC2OC(CN)=CCC2N)C(O)C1OC1OCC(C)(O)C(NC)C1O` (stereo not drawn) [netimicin], in experiment [3], the kon was determined as 37.1 M⁻¹ s⁻¹ and the koff is 0.00141 s⁻¹.
`NC[C@@H]1O[C@H](O[C@H]2[C@@H](O)[C@H](O[C@@H]3[C@@H](O)[C@H](N)C[C@H](N)[C@H]3O[C@H]3O[C@H](CO)[C@@H](O)[C@H](O)[C@H]3N)O[C@@H]2CO)[C@H](N)[C@@H](O)[C@@H]1O` [paromomycin] gave an IC50 in experiment [1] of 0.117 µM. Further, in experiment [2], the KA amounted to 23.851. For the same compound, in experiment [3], the Kd was found to be 0.0661 µM, the kon stood at 263000 M⁻¹ s⁻¹ and the koff was 0.0174 s⁻¹.
The like results for `CN[C@@H]1[C@H](O)[C@H](NC)[C@H]2O[C@@]3(O)C(=O)C[C@@H](C)O[C@H]3O[C@@H]2[C@H]1O` [spectinomycin] were, in that order, 0.188 µM, 23.900, 0.0639 µM, 211000 M⁻¹ s⁻¹ and 0.0135 s⁻¹.
For `CN[C@@H]1[C@H](O[C@H]2[C@H](O[C@H]3[C@H](O)[C@@H](O)[C@H](N=C(N)N)[C@@H](O)[C@@H]3N=C(N)N)O[C@@H](C)[C@]2(O)C=O)O[C@@H](CO)[C@H](O)[C@H]1O` [streptomycin] the same measures were 0.102 µM, 24.670, 0.0375 µM, 8200 M⁻¹ s⁻¹ and 0.000307 s⁻¹.
